These results are taken from patent publication US11607458B2 (Georgia State University Research Foundation, Inc, priority 2017, dated 2023).

Assay [1] can be described thus: HPLC studies of reaction kinetics of tetrazine prodrugs with cyclooctyne alkynes (Kobs, second-order rate constant k2). Type of assay: physicochemical. Conditions: for Kobs: prodrug 25 μM. The method, then:
Stock solution preparation. Each of the tetrazine prodrugs (compounds 1b, 1c, and 1d) was dissolved in DMSO to afford a 500-μM stock solution. Each of the alkynes (compounds 2a, 2b, 2c, and 2d) was dissolved in DMSO to afford a 50-mM stock solution. Doxorubicin (Dox) and dansylamino compound (DA) 1.1b were each dissolved in DMSO to afford 1-mM stock solutions.
HPLC method A.: mobile phase A (10 mM NaH2PO4 in water, pH=5.0) and mobile phase B (ACN), flow rate: 1 mL/min, running time: 30 min, the gradient elution method: 25% B from 0 to 6 min, 25% to 50% B from 6 to 8 min, 50% B from 8 to 15 min, 50% to 99% B from 15 to 20 min, 99% B from 20 to 25 min, 99% to 25% B from 25 to 30 min. Detection wavelength: 256 nm. Column: Waters C18 3.5 μM, 4.6×100 mm. Injection volume: 20 μL.
HPLC method B: mobile phase A (10 mM NaH2PO4 in water, pH=5.0) and mobile phase B (ACN), flow rate: 1 mL/min, running time: 30 min, the gradient elution method: 30% B from 0 to 6 min, 30% to 50% B from 6 to 8 min, 50% B from 8 to 15 min, 50% to 99% B from 15 to 20 min, 99% B from 20 to 25 min. 99% to 30% B from 25 to 30 min. Detection wavelength 1: 256, detection wavelength 2: 337 nm. Column: Waters C18 3.5 μM, 4.6×100 mm. Injection volume: 20 μL.
General procedures HPLC studies of reaction kinetics. To three 20-ml vials with 9 mL PBS were added a solution of tetrazine prodrug (500 μL, 500 μM). 350 μL, 300 μL and 250 μL DMSO were added to vial respectively, and then 150 μL, 200 μL and 250 μL of the alkyne solution (50 mM in DMSO) were added to the vials to afford final concentrations of alkyne 0.75 mM, 1 mM and 1.25 mM in PBS (10% DMSO, 25 μM prodrug) respectively. The reaction was stirred at r.t or 37° C. respectively. Every 30 min about 500 μL reaction mixtures were taken out and 20 μL of them were injected into the HPLC by the autosampler; the rest of them were poured back to the reaction mixture. (Note: In the cases of prodrugs 1d or 1b reacting with alkyne 2d at 37° C., the final concentrations of 2d in the kinetic studies were 250 μM, 300 μM and 350 μM).
Determination of second-order rate constants. The reaction rate constant, kobs, was calculated for each concentration of the alkyne by fitting the prodrug areas versus time using eq. 1: Y=A exp(−kobst) eq. 1 where Y is the prodrug area, and t is time. The pseudo-first-order rate constant, kobs, was then plotted against the concentration of alkyne to yield the second-order rate constant using eq 2: kobs=k2[Alkyne] eq. 2 where k2 is the second-order rate constant.

Assay [2] can be described thus: Determination of the lactonization rate constants (k1) by HPLC. Type of assay: physicochemical. Conditions: for Lactonization rate constant k1: alkyne 2b 5 mM, r.t., PBS (15% DMSO). Here is the method:
General procedure for the determination of the lactonization rate constants. To a 9 mL PBS in a 20-mL vial was added a solution of the respective tetrazine prodrug (500 μL, 500 μM). Then 1 mL of the respective alkyne (50 mM in DMSO) was added to afford a final concentration of 5 mM in PBS (15% DMSO). The reaction was stirred at r.t. Every 30 min about 500 μL the reaction mixture was taken out and 20 μL of them was injected into the HPLC by an autosampler; the rest of them was poured back to the reaction mixture. The reaction rate constant, k1, was determined by fitting the area in HPLC chromatogram of the intermediate versus time using eq. 3: Y=A exp(−k1t) eq. 3 where Y is the intermediate areas, and t is the time.

Consider `COc1cccc2c1C(=O)c1c(O)c3c(c(O)c1C2=O)CC(O)(C(=O)CO)CC3OC1CC(NC(=O)c2nnc(-c3ccc(OCc4cn(CCCCCCCCC[P+](c5ccccc5)(c5ccccc5)c5ccccc5)nn4)cc3)nn2)C(O)C(C)O1` (stereo not drawn) [1c], for which the Kobs in assay [1] (37° C., alkyne 2b 0.75 mM, Expt. 1) turned out to be 0.711 h⁻¹; in assay [1] (37° C., alkyne 2b 0.75 mM, Expt. 2), 0.701 h⁻¹; in assay [1] (37° C., alkyne 2b 0.75 mM, Expt. 3), 0.714 h⁻¹; in assay [1] (37° C., alkyne 2b 1.00 mM, Expt. 1) it was 0.921 h⁻¹; in assay [1] (37° C., alkyne 2b 1.00 mM, Expt. 2), 0.902 h⁻¹; in assay [1] (37° C., alkyne 2b 1.00 mM, Expt. 3), 0.871 h⁻¹. In addition, the Kobs in assay [1] (37° C., alkyne 2b 1.25 mM, Expt. 1) came to 1.21 h⁻¹; in assay [1] (37° C., alkyne 2b 1.25 mM, Expt. 2) it was 1.15 h⁻¹; in assay [1] (37° C., alkyne 2b 1.25 mM, Expt. 3), 1.09 h⁻¹; in assay [1] (r.t, alkyne 2b 0.75 mM, Expt. 1) it was 0.296 h⁻¹; in assay [1] (r.t, alkyne 2b 0.75 mM, Expt. 2), 0.305 h⁻¹; in assay [1] (r.t, alkyne 2b 0.75 mM, Expt. 3), 0.291 h⁻¹. Besides, the Kobs in assay [1] (r.t, alkyne 2b 1.00 mM, Expt. 1) was 0.331 h⁻¹; in assay [1] (r.t, alkyne 2b 1.00 mM, Expt. 2) it was 0.356 h⁻¹; in assay [1] (r.t, alkyne 2b 1.00 mM, Expt. 3), 0.359 h⁻¹; in assay [1] (r.t, alkyne 2b 1.25 mM, Expt. 1), 0.445 h⁻¹; in assay [1] (r.t, alkyne 2b 1.25 mM, Expt. 2), 0.465 h⁻¹; in assay [1] (r.t, alkyne 2b 1.25 mM, Expt. 3) it was 0.474 h⁻¹. In assay [1] (alkyne 2b, 37° C., PBS containing 10% DMSO, n = 3), the “k2 at 37° C. (second order rate constant)” value worked out at 0.25 ± 0.05 M⁻¹ s⁻¹. Further, in assay [1] (alkyne 2b, r.t, PBS containing 10% DMSO, n = 3), the “k2 at r.t (second order rate constant)” value worked out at 0.091 ± 0.013 M⁻¹ s⁻¹. The “Lactonization rate constant k1” value in assay [2] (Exp 2) came out at 0.191 h⁻¹; in assay [2] (Expt 1) it was 0.225 h⁻¹; in assay [2] (Expt. 3), 0.265 h⁻¹. The “k1 at r.t (lactonization)” value in assay [2] (alkyne 2b, r.t, n = 3) came out at 0.22 ± 0.05 h⁻¹.
